Measured values published in PubChem BioAssay (NCI).
Values joined by “and” are separate entries in the source; they are usually repeats but may differ in a detail not shown here. Equal entries are not always repeated.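 Grown in 96-well plates, cells were treated for 48 hours with each compound at five concentrations. Insufficient inhibition: endpoint recorded as highest concentration tested. GI50 is the concentration that inhibits growth by half. Definition used: TGI = concentration required for complete inhibition of growth.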

Assays:
Assay in all cases: NCI-60 cell line screen, 48 h
LOX IMVI melanoma = system: LOX IMVI melanoma
SF-295 CNS = system: SF-295 CNS
SK-MEL-2 melanoma = system: SK-MEL-2 melanoma
CCRF-CEM leukemia = system: CCRF-CEM leukemia
EKVX NSCLC = system: EKVX NSCLC
SK-MEL-28 melanoma = system: SK-MEL-28 melanoma
SF-268 CNS = system: SF-268 CNS
OVCAR-8 ovarian = system: OVCAR-8 ovarian

Compound: CCOC(=O)/C=C1\Nc2ccccc2C12CCc1c([nH]c3ccccc13)C2C(=O)OCC (stereo not drawn)
- TGI (LOX IMVI melanoma): > 100 µM
- TGI (SF-295 CNS): > 100 µM
- TGI (SK-MEL-2 melanoma): > 100 µM
- TGI (CCRF-CEM leukemia): > 100 µM
- TGI (EKVX NSCLC): > 100 µM
- TGI (SK-MEL-28 melanoma): > 100 µM
- TGI (SF-268 CNS): > 100 µM
- TGI (OVCAR-8 ovarian): > 100 µM

Compound: C#CC(C)(C)Oc1cc(OC)c2c(=O)c3ccccc3n(C)c2c1
- TGI (SF-295 CNS): 51.8 µM
- TGI (SK-MEL-2 melanoma): 35.7 µM
- TGI (CCRF-CEM leukemia): 27.5 µM
- TGI (EKVX NSCLC): 74.5 µM
- TGI (SK-MEL-28 melanoma): 42.6 µM
- TGI (SF-268 CNS): 73 µM
- TGI (OVCAR-8 ovarian): 68 µM

Compound: COc1cn2c(cc1=O)COc1ccc(-c3ccccc3)cc1-2
- TGI (LOX IMVI melanoma): > 85.5 µM
- TGI (SF-295 CNS): > 100 µM
- TGI (SK-MEL-2 melanoma): > 100 µM
- GI50 (CCRF-CEM leukemia): 40.2 µM
- TGI (CCRF-CEM leukemia): > 100 µM
- TGI (EKVX NSCLC): > 100 µM
- TGI (SK-MEL-28 melanoma): > 100 µM
- TGI (SF-268 CNS): > 100 µM
- TGI (OVCAR-8 ovarian): > 100 µM

Compound: COc1cc(C2C(Cl)C(=O)N2c2ccc(Br)cc2)cc(I)c1O (stereo not drawn)
- TGI (LOX IMVI melanoma): > 100 µM
- TGI (SF-295 CNS): > 100 µM
- TGI (SK-MEL-2 melanoma): > 100 µM
- TGI (CCRF-CEM leukemia): > 100 µM
- TGI (EKVX NSCLC): > 100 µM
- TGI (SF-268 CNS): > 100 µM
- TGI (OVCAR-8 ovarian): > 100 µM

Compound: CN(C)c1ccc(/C=C(\NC(=O)c2ccccc2)C(=O)Nc2ccccc2C(=O)NN2C(=O)CSC2c2ccc(N(C)C)cc2)cc1 (stereo not drawn)
- TGI (LOX IMVI melanoma): > 100 µM
- TGI (SF-295 CNS): > 100 µM
- TGI (SK-MEL-2 melanoma): > 100 µM
- TGI (CCRF-CEM leukemia): > 100 µM
- TGI (EKVX NSCLC): > 100 µM
- TGI (SK-MEL-28 melanoma): > 100 µM
- TGI (SF-268 CNS): > 100 µM
- TGI (OVCAR-8 ovarian): > 100 µM

Compound: c1ccc2c(c1)CC1c3[nH]c4ccccc4c3CCN21 (stereo not drawn)
- TGI (LOX IMVI melanoma): > 10 µM
- TGI (SF-295 CNS): > 10 µM
- TGI (SK-MEL-2 melanoma): > 10 µM
- TGI (CCRF-CEM leukemia): > 10 µM
- TGI (EKVX NSCLC): > 10 µM
- TGI (SK-MEL-28 melanoma): > 10 µM
- TGI (SF-268 CNS): > 10 µM
- TGI (OVCAR-8 ovarian): > 10 µM

Compound: COC(=O)Cc1c(C2=Nc3ccccc3C2(O)CC(=O)OC)[nH]c2ccccc12 (stereo not drawn)
- TGI (LOX IMVI melanoma): > 100 µM
- TGI (SF-295 CNS): > 100 µM
- TGI (SK-MEL-2 melanoma): > 100 µM
- TGI (CCRF-CEM leukemia): 54.5 µM
- TGI (EKVX NSCLC): > 100 µM
- TGI (SK-MEL-28 melanoma): > 100 µM
- TGI (SF-268 CNS): > 100 µM
- TGI (OVCAR-8 ovarian): > 100 µM

Compound: COc1cc2c3c(n(CCCNCCO)c(=O)c2cc1OC)-c1cc2c(cc1C3=O)OCO2
- TGI (LOX IMVI melanoma): 0.169 µM
- GI50 (SF-295 CNS): < 0.0188 µM
- TGI (SF-295 CNS): 1.29 µM and 4.27 µM
- GI50 (SK-MEL-2 melanoma): 2.55 µM and 10.9 µM
- TGI (SK-MEL-2 melanoma): 5.84 µM and 23.7 µM
- GI50 (EKVX NSCLC): 0.257 µM and 0.557 µM
- TGI (EKVX NSCLC): 1.22 µM
- GI50 (SF-268 CNS): < 0.01 µM
- TGI (SF-268 CNS): 0.448 µM
- TGI (OVCAR-8 ovarian): 5.34 µM

Compound: Cn1c(N)c(/C=N/NC(=O)CC#N)c(=O)n(C)c1=O
- TGI (LOX IMVI melanoma): > 100 µM
- TGI (SF-295 CNS): > 100 µM
- TGI (SK-MEL-2 melanoma): > 100 µM
- TGI (CCRF-CEM leukemia): > 100 µM
- TGI (EKVX NSCLC): > 100 µM
- TGI (SK-MEL-28 melanoma): > 100 µM
- TGI (SF-268 CNS): > 100 µM
- TGI (OVCAR-8 ovarian): > 100 µM

Compound: CC(C)=CC(=O)O[C@@H]1CC(C)(C)CC2C3=CCC4[C@]56CC[C@](O)(OC5)C(C)(C)C6CC[C@@]4(C)C3(C)CC[C@]21C(=O)O (stereo partly drawn)
- TGI (LOX IMVI melanoma): 44.4 µM
- TGI (SF-295 CNS): > 100 µM
- TGI (SK-MEL-2 melanoma): > 100 µM
- TGI (CCRF-CEM leukemia): > 100 µM
- TGI (EKVX NSCLC): > 100 µM
- TGI (SK-MEL-28 melanoma): > 100 µM
- TGI (SF-268 CNS): > 100 µM
- TGI (OVCAR-8 ovarian): > 100 µM

Compound: CC1=NNC(N)=N/C1=C/C(Sc1ccc(Cl)cc1)c1cccs1 (stereo not drawn)
- TGI (LOX IMVI melanoma): > 100 µM
- TGI (SF-295 CNS): 31.3 µM
- TGI (SK-MEL-2 melanoma): 27.4 µM
- TGI (CCRF-CEM leukemia): 9.79 µM
- TGI (EKVX NSCLC): 30.3 µM
- TGI (SK-MEL-28 melanoma): 39.7 µM
- TGI (SF-268 CNS): 30.5 µM
- TGI (OVCAR-8 ovarian): 57.2 µM

Compound: O=C1CCSSCCC(=O)Nc2ccccc2N1
- TGI (LOX IMVI melanoma): > 100 µM
- TGI (SF-295 CNS): > 100 µM
- TGI (SK-MEL-2 melanoma): > 100 µM
- TGI (CCRF-CEM leukemia): > 100 µM
- TGI (EKVX NSCLC): > 100 µM
- TGI (SK-MEL-28 melanoma): > 100 µM
- TGI (SF-268 CNS): > 100 µM
- TGI (OVCAR-8 ovarian): > 100 µM

Compound: CCCCC[C@H](O)[C@H](C)C=C1SCCCS1
- TGI (LOX IMVI melanoma): > 100 µM
- TGI (SF-295 CNS): > 100 µM
- TGI (SK-MEL-2 melanoma): > 100 µM
- TGI (CCRF-CEM leukemia): > 100 µM
- TGI (EKVX NSCLC): > 100 µM
- TGI (SK-MEL-28 melanoma): > 100 µM
- TGI (SF-268 CNS): > 100 µM
- TGI (OVCAR-8 ovarian): > 100 µM

Compound: COc1ccc(Cn2nc(OCc3ccccn3)c3cc([N+](=O)[O-])ccc32)cc1
- TGI (LOX IMVI melanoma): > 100 µM
- TGI (SF-295 CNS): > 100 µM
- TGI (SK-MEL-2 melanoma): > 100 µM
- TGI (CCRF-CEM leukemia): > 100 µM
- TGI (SK-MEL-28 melanoma): > 100 µM
- TGI (SF-268 CNS): > 100 µM
- TGI (OVCAR-8 ovarian): > 100 µM

Compound: N#Cc1c(N)c(-c2ccc(Cl)cc2)c(F)c2ccccc12
- TGI (LOX IMVI melanoma): > 100 µM
- TGI (SF-295 CNS): > 100 µM
- TGI (SK-MEL-2 melanoma): > 100 µM
- TGI (EKVX NSCLC): > 100 µM
- TGI (SK-MEL-28 melanoma): > 100 µM
- TGI (SF-268 CNS): > 100 µM
- TGI (OVCAR-8 ovarian): > 100 µM

Compound: CN(C)c1ccc(-c2nc(-c3cc4c(ccc5ccccc54)oc3=O)cs2)cc1
- TGI (LOX IMVI melanoma): > 100 µM
- TGI (SF-295 CNS): > 100 µM
- TGI (SK-MEL-2 melanoma): > 100 µM
- TGI (CCRF-CEM leukemia): > 100 µM
- TGI (EKVX NSCLC): > 100 µM
- TGI (SK-MEL-28 melanoma): > 100 µM
- TGI (SF-268 CNS): > 100 µM
- TGI (OVCAR-8 ovarian): > 100 µM

Compound: CC1(C)OC[C@@H](/C=C\CCO[Si](c2ccccc2)(c2ccccc2)C(C)(C)C)N1C(=O)c1ccccc1
- TGI (LOX IMVI melanoma): 28.6 µM
- TGI (SF-295 CNS): > 100 µM
- TGI (SK-MEL-2 melanoma): 19.6 µM
- TGI (CCRF-CEM leukemia): 59.7 µM
- TGI (EKVX NSCLC): 25.8 µM
- TGI (SK-MEL-28 melanoma): > 100 µM
- TGI (SF-268 CNS): 81.4 µM
- TGI (OVCAR-8 ovarian): > 100 µM

Compound: O=C(Cn1c2ccc(Br)cc2c2nc3ccccc3nc21)NC1CCCCC1
- TGI (LOX IMVI melanoma): > 100 µM
- TGI (SF-295 CNS): > 100 µM
- TGI (SK-MEL-2 melanoma): > 100 µM
- TGI (SK-MEL-28 melanoma): > 100 µM
- TGI (SF-268 CNS): > 100 µM
- TGI (OVCAR-8 ovarian): > 100 µM

Compound: O=C(Cc1nc2ccc(C(=O)c3ccccc3)cc2[nH]c1=O)C(=O)Nc1ccccc1[N+](=O)[O-]
- TGI (LOX IMVI melanoma): > 100 µM
- TGI (SF-295 CNS): > 100 µM
- TGI (SK-MEL-2 melanoma): > 100 µM
- TGI (CCRF-CEM leukemia): > 100 µM
- TGI (EKVX NSCLC): > 100 µM
- TGI (SK-MEL-28 melanoma): > 100 µM
- TGI (SF-268 CNS): > 100 µM
- TGI (OVCAR-8 ovarian): > 100 µM

Compound: Cc1ccc(S(=O)(=O)Nn2c(-c3ccccc3)c(C#N)c(-c3ccc([N+](=O)[O-])cc3)c(C#N)c2=O)cc1
- TGI (LOX IMVI melanoma): > 100 µM
- TGI (SF-295 CNS): > 100 µM
- TGI (SK-MEL-2 melanoma): > 100 µM
- TGI (CCRF-CEM leukemia): > 100 µM
- TGI (EKVX NSCLC): > 100 µM
- TGI (SK-MEL-28 melanoma): > 100 µM
- TGI (SF-268 CNS): > 100 µM
- TGI (OVCAR-8 ovarian): > 100 µM

Compound: O=C1/C(=C/c2cccc(Oc3ccccc3)c2)N=C(c2ccccc2)N1c1nc2ccc(Sc3ccccc3)cc2[nH]1
- TGI (LOX IMVI melanoma): > 100 µM
- TGI (SF-295 CNS): 53.7 µM
- TGI (SK-MEL-2 melanoma): 38.4 µM
- TGI (CCRF-CEM leukemia): > 100 µM
- TGI (EKVX NSCLC): > 100 µM
- TGI (SK-MEL-28 melanoma): > 100 µM
- TGI (SF-268 CNS): > 100 µM
- TGI (OVCAR-8 ovarian): > 100 µM

Compound: O=C1c2cc(Cl)ccc2-n2c(noc2=O)C2CSCN12 (stereo not drawn)
- TGI (LOX IMVI melanoma): > 100 µM
- TGI (SF-295 CNS): > 100 µM
- TGI (SK-MEL-2 melanoma): > 100 µM
- TGI (CCRF-CEM leukemia): > 100 µM
- TGI (EKVX NSCLC): > 100 µM
- TGI (SK-MEL-28 melanoma): > 100 µM
- TGI (SF-268 CNS): > 100 µM
- TGI (OVCAR-8 ovarian): > 100 µM

Compound: Cc1ccc(Nc2nc(=O)[nH]c(=O)[nH]2)cc1N
- TGI (LOX IMVI melanoma): > 100 µM
- TGI (SF-295 CNS): > 100 µM
- TGI (SK-MEL-2 melanoma): > 100 µM
- TGI (CCRF-CEM leukemia): > 100 µM
- TGI (EKVX NSCLC): > 100 µM
- TGI (SK-MEL-28 melanoma): > 100 µM
- TGI (SF-268 CNS): > 100 µM
- TGI (OVCAR-8 ovarian): > 100 µM

Compound: COc1cc(C(=O)Nc2nnc(S(N)(=O)=O)s2)cc(OC)c1OC
- TGI (LOX IMVI melanoma): > 100 µM
- TGI (SF-295 CNS): > 100 µM
- TGI (SK-MEL-2 melanoma): > 100 µM
- TGI (EKVX NSCLC): > 100 µM
- TGI (SK-MEL-28 melanoma): > 100 µM
- TGI (SF-268 CNS): > 100 µM
- TGI (OVCAR-8 ovarian): > 100 µM
